According to patent US20050096254A1, “Peptide deformylase activated prodrugs” (priority 2002, published 2005):
In brackets after ≈: the same amount, converted by molar mass.

Legend:
Assay in all cases: MIC susceptibility testing (modified NCCLS)
Format in all cases: cell-based
[1] = system: E. faecalis
Description: (§1) The NCCLS (National Committee for Clinical Laboratory Standards), method to determine MIC's of antimicrobial compounds is modified for high-throughput screening. All stocks of tested compounds are prepared in either water or in DMSO depending on solubility. At the highest concentration, DMSO content should not exceed 0.5%. Briefly, twenty 2-fold serial dilutions of test compounds from the highest concentration is made in a 384-well microtiter plate. Each well is inoculated with testing bacteria in broth to a final concentration of approximately 1-1.5×10^6 cells/ml. Bacterial growth is determined by the increase of optical density at 600 nm using a microplate reader (Tecan SpectraFluor Plus).

[2] = system: E. coli; conditions: Table 4, E. coli
Description: as §1

[3] = system: S. epidermidis
Description: as §1

[4] = system: M. catarrhalis
Description: as §1

[5] = system: E. cloacae
Description: as §1

[6] = system: E. aerogenes
Description: as §1

[7] = system: S. aureus
Description: as §1

[8] = system: H. influenzae
Description: as §1

[9] = system: E. coli/Tem-1; conditions: Table 4, E. coli expressing TEM-1 beta-lactamase
Description: as §1, with “Plus). The MIC is defined as the lowest concentration at which bacterial growth (equivalent to visible growth) was inhibited after 16 to 18 hours of incubation at the appropriate temperature required for the bacteria growth.” for “Plus).”
E. coli/TEM—E. coli expressing TEM-1 beta-lactamase; MRSA—Methicillin Resistant S. Aureus; MSSA—Methicillin Sensitive S. Aureus.

[10] = system: P. aeruginosa
Description: as §1, with “Each well is inoculated with testing bacteria in broth to a final concentration of approximately 1-1.5×10^6 cells/ml.” left out

CSCC[C@H](NC=O)C(=O)N[C@@H](CC(C)C)C(=O)Oc1cc(Cl)ccc1Oc1ccc(Cl)cc1Cl [Compound #2]
MIC ([1]; Table 4, E. faecalis ATCC 49757, Exp. #1): 64 µg/mL (≈ 114 µM)
MIC ([1]; Table 4, E. faecalis ATCC 49757, Exp. #2): 32 µg/mL (≈ 56.9 µM)
MIC ([1]; Table 4, E. faecalis ATCC 700802, Exp. #1): 32 µg/mL (≈ 56.9 µM)
MIC ([1]; Table 4, E. faecalis ATCC 700802, Exp. #2): 32 µg/mL (≈ 56.9 µM)
MIC ([2]; Exp. #1): 16 µg/mL (≈ 28.5 µM)
MIC ([2]; Exp. #2): 16 µg/mL (≈ 28.5 µM)
MIC ([3]; Table 3, S. epidermidis ATCC 27626, Exp. #1): ≦0.125 μg/ml
MIC ([3]; Table 3, S. epidermidis ATCC 27626, Exp. #2): ≦0.125 μg/ml
MIC ([3]; Table 3, S. epidermidis ATCC 700565, Exp. #1): 2 µg/mL (≈ 3.56 µM)
MIC ([3]; Table 3, S. epidermidis ATCC 700565, Exp. #2): 2 µg/mL (≈ 3.56 µM)
MIC ([3]; Table 3, S. epidermidis ATCC 700566, Exp. #1): ≦0.125 μg/ml
MIC ([3]; Table 3, S. epidermidis ATCC 700566, Exp. #2): ≦0.125 μg/ml
MIC ([3]; Table 3, S. epidermidis ATCC 700578, Exp. #1): 0.5 µg/mL (≈ 0.89 µM)
MIC ([3]; Table 3, S. epidermidis ATCC 700578, Exp. #2): 0.25 µg/mL (≈ 0.445 µM)
MIC ([3]; Table 3, S. epidermidis ATCC 700583, Exp. #1): ≦0.125 μg/ml
MIC ([3]; Table 3, S. epidermidis ATCC 700583, Exp. #2): ≦0.125 μg/ml
MIC ([4]; Table 3, M. catarrhalis ATCC 43627, Exp. #1): ≦0.125 μg/ml
MIC ([4]; Table 3, M. catarrhalis ATCC 43627, Exp. #2): ≦0.125 μg/ml
MIC ([4]; Table 3, M. catarrhalis ATCC 43628, Exp. #1): ≦0.125 μg/ml
MIC ([4]; Table 3, M. catarrhalis ATCC 43628, Exp. #2): ≦0.125 μg/ml
MIC ([4]; Table 3, M. catarrhalis ATCC 49265, Exp. #1): ≦0.125 μg/ml
MIC ([4]; Table 3, M. catarrhalis ATCC 49265, Exp. #2): ≦0.125 μg/ml
MIC ([4]; Table 3, M. catarrhalis ATCC 51584, Exp. #1): ≦0.125 μg/ml
MIC ([4]; Table 3, M. catarrhalis ATCC 51584, Exp. #2): ≦0.125 μg/ml
MIC ([5]; Table 3, E. cloacae ATCC 23355, Exp. #1): 0.5 µg/mL (≈ 0.89 µM)
MIC ([5]; Table 3, E. cloacae ATCC 23355, Exp. #2): 0.5 µg/mL (≈ 0.89 µM)
MIC ([5]; Table 4, E. cloacae ATCC 23355, Exp. #1): 16 µg/mL (≈ 28.5 µM)
MIC ([5]; Table 4, E. cloacae ATCC 23355, Exp. #2): 1 µg/mL (≈ 1.78 µM)
MIC ([6]; Table 3, E. aerogenes ATCC 13048, Exp. #1): 1 µg/mL (≈ 1.78 µM)
MIC ([6]; Table 3, E. aerogenes ATCC 13048, Exp. #2): 1 µg/mL (≈ 1.78 µM)
MIC ([6]; Table 3, E. aerogenes ATCC 29009, Exp. #1): 0.25 µg/mL (≈ 0.445 µM)
MIC ([6]; Table 3, E. aerogenes ATCC 29009, Exp. #2): ≦0.125 μg/ml
MIC ([6]; Table 3, E. aerogenes ATCC 29751, Exp. #1): 2 µg/mL (≈ 3.56 µM)
MIC ([6]; Table 3, E. aerogenes ATCC 29751, Exp. #2): 1 µg/mL (≈ 1.78 µM)
MIC ([6]; Table 3, E. aerogenes ATCC 35028, Exp. #1): 4 µg/mL (≈ 7.12 µM)
MIC ([6]; Table 3, E. aerogenes ATCC 35028, Exp. #2): 2 µg/mL (≈ 3.56 µM)
MIC ([6]; Table 4, E. aerogenes ATCC 35028, Exp. #1): 32 µg/mL (≈ 56.9 µM)
MIC ([6]; Table 4, E. aerogenes ATCC 35028, Exp. #2): 16 µg/mL (≈ 28.5 µM)
MIC ([7]; Table 3, S. aureus ATCC 11632, Exp. #1): ≦0.125 μg/ml
MIC ([7]; Table 3, S. aureus ATCC 11632, Exp. #2): ≦0.125 μg/ml
MIC ([7]; Table 3, S. aureus ATCC 13301, Exp. #1): ≦0.125 μg/ml
MIC ([7]; Table 3, S. aureus ATCC 13301, Exp. #2): ≦0.125 μg/ml
MIC ([7]; Table 3, S. aureus ATCC 14154, Exp. #1): ≦0.125 μg/ml
MIC ([7]; Table 3, S. aureus ATCC 14154, Exp. #2): ≦0.125 μg/ml
MIC ([7]; Table 3, S. aureus ATCC 33591, Exp. #1): ≦0.125 μg/ml
MIC ([7]; Table 3, S. aureus ATCC 33591, Exp. #2): ≦0.125 μg/ml
MIC ([7]; Table 3, S. aureus ATCC 33592, Exp. #1): ≦0.125 μg/ml
MIC ([7]; Table 3, S. aureus ATCC 33592, Exp. #2): ≦0.125 μg/ml
MIC ([7]; Table 3, S. aureus ATCC 33593, Exp. #1): ≦0.125 μg/ml
MIC ([7]; Table 3, S. aureus ATCC 33593, Exp. #2): ≦0.125 μg/ml
MIC ([7]; Table 3, S. aureus ATCC 43300, Exp. #1): ≦0.125 μg/ml
MIC ([7]; Table 3, S. aureus ATCC 43300, Exp. #2): ≦0.125 μg/ml
MIC ([7]; Table 3, S. aureus ATCC 700260, Exp. #1): ≦0.125 μg/ml
MIC ([7]; Table 3, S. aureus ATCC 700260, Exp. #2): ≦0.125 μg/ml
MIC ([7]; Table 3, S. aureus ATCC 700698, Exp. #1): ≦0.125 μg/ml
MIC ([7]; Table 3, S. aureus ATCC 700698, Exp. #2): ≦0.125 μg/ml
MIC ([7]; Table 3, S. aureus ATCC 700699, Exp. #1): 16000 ng/mL (≈ 28.5 µM)
MIC ([7]; Table 3, S. aureus ATCC 700699, Exp. #2): 8000 ng/mL (≈ 14.2 µM)
MIC ([7]; Table 3, S. aureus ATCC 700787, Exp. #1): ≦0.125 μg/ml
MIC ([7]; Table 3, S. aureus ATCC 700787, Exp. #2): ≦0.125 μg/ml
MIC ([7]; Table 3, S. aureus ATCC 700788, Exp. #1): ≦0.125 μg/ml
MIC ([7]; Table 3, S. aureus ATCC 700788, Exp. #2): ≦0.125 μg/ml
MIC ([7]; Table 3, S. aureus ATCC 700789, Exp. #1): ≦0.125 μg/ml
MIC ([7]; Table 3, S. aureus ATCC 700789, Exp. #2): ≦0.125 μg/ml
MIC ([7]; Table 4, MRSA ATCC 700699, Exp. #1): 32000 ng/mL (≈ 56.9 µM)
MIC ([7]; Table 4, MRSA ATCC 700699, Exp. #2): 32000 ng/mL (≈ 56.9 µM)
MIC ([7]; Table 4, MSSA ATCC 11632, Exp. #1): 32000 ng/mL (≈ 56.9 µM)
MIC ([7]; Table 4, MSSA ATCC 11632, Exp. #2): 16000 ng/mL (≈ 28.5 µM)
MIC ([7]; Table 4, MSSA ATCC 33594, Exp. #1): ≦0.125 μg/ml
MIC ([7]; Table 4, MSSA ATCC 33594, Exp. #2): ≦0.125 μg/ml
MIC ([7]; Table 4, MSSA ATCC 700260, Exp. #1): ≦0.125 μg/ml
MIC ([7]; Table 4, MSSA ATCC 700260, Exp. #2): 4000 ng/mL (≈ 7.12 µM)
MIC ([7]; Table 5, MSSA ATCC 11632): 0.977 ng/mL (≈ 0.00174 µM)
MIC ([7]; Table 5, MSSA ATCC 13301): 0.015 ng/mL (≈ 2.67e-05 µM)
MIC ([7]; Table 5, MSSA ATCC 14154): 0.977 ng/mL (≈ 0.00174 µM)
MIC ([7]; Table 5, MSSA ATCC 33591): 15.63 ng/mL (≈ 0.0278 µM)
MIC ([7]; Table 5, MSSA ATCC 33592): 0.488 ng/mL (≈ 0.000868 µM)
MIC ([7]; Table 5, MSSA ATCC 33593): 0.488 ng/mL (≈ 0.000868 µM)
MIC ([7]; Table 5, MSSA ATCC 43300): 0.977 ng/mL (≈ 0.00174 µM)
MIC ([7]; Table 5, MSSA ATCC 700260): 0.031 ng/mL (≈ 5.52e-05 µM)
MIC ([7]; Table 5, MSSA ATCC 700698): 3.906 ng/mL (≈ 0.00695 µM)
MIC ([7]; Table 5, MSSA ATCC 700699): ≧4 μg/ml
MIC ([7]; Table 5, MSSA ATCC 700787): 7.813 ng/mL (≈ 0.0139 µM)
MIC ([7]; Table 5, MSSA ATCC 700788): 62.5 ng/mL (≈ 0.111 µM)
MIC ([7]; Table 5, MSSA ATCC 700789): 15.63 ng/mL (≈ 0.0278 µM)
MIC ([8]; Table 4, H. influenzae ATCC 33533, Exp. #1): 64 µg/mL (≈ 114 µM)
MIC ([8]; Table 4, H. influenzae ATCC 33533, Exp. #2): ≧64 μg/ml
MIC ([9]; Exp. #1): 16 µg/mL (≈ 28.5 µM)
MIC ([9]; Exp. #2): 16 µg/mL (≈ 28.5 µM)
MIC ([10]; Table 4, P. aeruginosa ATCC 21726, Exp. #1): >64 µg/mL
MIC ([10]; Table 4, P. aeruginosa ATCC 21726, Exp. #2): ≧64 μg/ml
MIC ([10]; Table 4, P. aeruginosa ATCC 29872, Exp. #1): >64 µg/mL
MIC ([10]; Table 4, P. aeruginosa ATCC 29872, Exp. #2): ≧64 μg/ml
